Assay results from the NIST ThermoML archive (doi:10.1021/je0504109).
± gives the expanded uncertainty stated by the source. One block for each compound: values may come before it.

Experiment: xn = mol fraction of the nth substance listed
Conditions: 298.15 K, 101 kPa, Liquid

Compound: CCC(C)=O [butanone] + C1COCO1
mass density (x2 = 0): 798.1 ± 0.6 kg/m3
viscosity (x2 = 0): 0.373 ± 0.007 mPa·s

Compound: C1COCCO1 [1,4-dioxane] + CCCCN
mass density (x1 = 1): 1026.5 ± 0.8 kg/m3
viscosity (x1 = 1): 1.196 ± 0.02 mPa·s

mass density (x2 = 0): 731.9 ± 0.6 kg/m3
viscosity (x2 = 0): 0.493 ± 0.009 mPa·s
mass density (x2 = 0.0855): 753.4 ± 0.6 kg/m3
viscosity (x2 = 0.0855): 0.509 ± 0.01 mPa·s
mass density (x2 = 0.1738): 776.1 ± 0.6 kg/m3
viscosity (x2 = 0.1738): 0.524 ± 0.01 mPa·s
mass density (x2 = 0.265): 800.1 ± 0.6 kg/m3
viscosity (x2 = 0.265): 0.541 ± 0.01 mPa·s
mass density (x2 = 0.3594): 825.8 ± 0.7 kg/m3
viscosity (x2 = 0.3594): 0.56 ± 0.01 mPa·s
mass density (x2 = 0.4569): 853.3 ± 0.7 kg/m3
viscosity (x2 = 0.4569): 0.59 ± 0.011 mPa·s
mass density (x2 = 0.5579): 882.8 ± 0.7 kg/m3
viscosity (x2 = 0.5579): 0.637 ± 0.011 mPa·s
mass density (x2 = 0.6625): 914.7 ± 0.7 kg/m3
viscosity (x2 = 0.6625): 0.699 ± 0.012 mPa·s
mass density (x2 = 0.7709): 949.2 ± 0.8 kg/m3
viscosity (x2 = 0.7709): 0.792 ± 0.014 mPa·s
mass density (x2 = 0.8834): 986.4 ± 0.8 kg/m3
viscosity (x2 = 0.8834): 0.941 ± 0.016 mPa·s
Compound: CCCCN [1-butanamine] + C1COCCO1

Compound: C1COCO1 [1,3-dioxolane] + CCC(C)=O
mass density (x1 = 0.0976): 818.9 ± 0.6 kg/m3
viscosity (x1 = 0.0976): 0.384 ± 0.008 mPa·s
mass density (x1 = 0.1957): 840.5 ± 0.7 kg/m3
viscosity (x1 = 0.1957): 0.397 ± 0.008 mPa·s
mass density (x1 = 0.2944): 863.1 ± 0.7 kg/m3
viscosity (x1 = 0.2944): 0.411 ± 0.008 mPa·s
mass density (x1 = 0.3935): 886.8 ± 0.7 kg/m3
viscosity (x1 = 0.3935): 0.426 ± 0.008 mPa·s
mass density (x1 = 0.4933): 911.8 ± 0.7 kg/m3
viscosity (x1 = 0.4933): 0.441 ± 0.009 mPa·s
mass density (x1 = 0.5935): 938.1 ± 0.8 kg/m3
viscosity (x1 = 0.5935): 0.456 ± 0.009 mPa·s
mass density (x1 = 0.6943): 965.5 ± 0.8 kg/m3
viscosity (x1 = 0.6943): 0.473 ± 0.009 mPa·s
mass density (x1 = 0.7956): 994.2 ± 0.8 kg/m3
viscosity (x1 = 0.7956): 0.491 ± 0.009 mPa·s
mass density (x1 = 0.8975): 1024.5 ± 0.8 kg/m3
viscosity (x1 = 0.8975): 0.51 ± 0.01 mPa·s
mass density (x1 = 1): 1057.1 ± 0.9 kg/m3
viscosity (x1 = 1): 0.531 ± 0.01 mPa·s

mass density (x2 = 0): 952.8 ± 0.8 kg/m3
viscosity (x2 = 0): 1.396 ± 0.023 mPa·s
mass density (x2 = 0.1): 961.7 ± 0.8 kg/m3
viscosity (x2 = 0.1): 1.504 ± 0.025 mPa·s
mass density (x2 = 0.2): 970.3 ± 0.8 kg/m3
viscosity (x2 = 0.2): 1.57 ± 0.026 mPa·s
mass density (x2 = 0.3): 978.4 ± 0.8 kg/m3
viscosity (x2 = 0.3): 1.587 ± 0.026 mPa·s
mass density (x2 = 0.4): 986.1 ± 0.8 kg/m3
viscosity (x2 = 0.4): 1.572 ± 0.026 mPa·s
mass density (x2 = 0.5): 993.4 ± 0.8 kg/m3
viscosity (x2 = 0.5): 1.507 ± 0.025 mPa·s
mass density (x2 = 0.6): 1000.2 ± 0.8 kg/m3
viscosity (x2 = 0.6): 1.443 ± 0.024 mPa·s
mass density (x2 = 0.7): 1006.8 ± 0.8 kg/m3
viscosity (x2 = 0.7): 1.362 ± 0.022 mPa·s
mass density (x2 = 0.8): 1013.1 ± 0.8 kg/m3
viscosity (x2 = 0.8): 1.293 ± 0.021 mPa·s
mass density (x2 = 0.9): 1019.4 ± 0.8 kg/m3
viscosity (x2 = 0.9): 1.241 ± 0.021 mPa·s
Compound: CCCC(=O)O [butanoic acid] + C1COCCO1

Compound: CCCCOC(C)=O [butyl ethanoate] + C1COCCO1
mass density (x2 = 0): 874.4 ± 0.7 kg/m3
viscosity (x2 = 0): 0.668 ± 0.012 mPa·s
mass density (x2 = 0.1278): 887.5 ± 0.7 kg/m3
viscosity (x2 = 0.1278): 0.682 ± 0.012 mPa·s
mass density (x2 = 0.2479): 901 ± 0.7 kg/m3
viscosity (x2 = 0.2479): 0.692 ± 0.012 mPa·s
mass density (x2 = 0.361): 914.9 ± 0.7 kg/m3
viscosity (x2 = 0.361): 0.708 ± 0.013 mPa·s
mass density (x2 = 0.4678): 929.2 ± 0.7 kg/m3
viscosity (x2 = 0.4678): 0.739 ± 0.013 mPa·s
mass density (x2 = 0.5687): 944.1 ± 0.8 kg/m3
viscosity (x2 = 0.5687): 0.779 ± 0.014 mPa·s
mass density (x2 = 0.6641): 959.4 ± 0.8 kg/m3
viscosity (x2 = 0.6641): 0.822 ± 0.014 mPa·s
mass density (x2 = 0.7547): 975.3 ± 0.8 kg/m3
viscosity (x2 = 0.7547): 0.866 ± 0.015 mPa·s
mass density (x2 = 0.8406): 991.8 ± 0.8 kg/m3
viscosity (x2 = 0.8406): 0.939 ± 0.016 mPa·s
mass density (x2 = 0.9223): 1008.9 ± 0.8 kg/m3
viscosity (x2 = 0.9223): 1.035 ± 0.017 mPa·s

Compound: C1COCCO1 [1,4-dioxane] + CCCCOC(C)=O
mass density (x1 = 1): 1026.5 ± 0.8 kg/m3
viscosity (x1 = 1): 1.196 ± 0.02 mPa·s

mass density (x2 = 0): 952.8 ± 0.8 kg/m3
viscosity (x2 = 0): 1.396 ± 0.023 mPa·s
mass density (x2 = 0.1167): 963.1 ± 0.8 kg/m3
viscosity (x2 = 0.1167): 1.297 ± 0.021 mPa·s
mass density (x2 = 0.2292): 973.7 ± 0.8 kg/m3
viscosity (x2 = 0.2292): 1.202 ± 0.02 mPa·s
mass density (x2 = 0.3376): 984.3 ± 0.8 kg/m3
viscosity (x2 = 0.3376): 1.111 ± 0.019 mPa·s
mass density (x2 = 0.4422): 995.3 ± 0.8 kg/m3
viscosity (x2 = 0.4422): 1.023 ± 0.017 mPa·s
mass density (x2 = 0.5432): 1006.1 ± 0.8 kg/m3
viscosity (x2 = 0.5432): 0.938 ± 0.016 mPa·s
mass density (x2 = 0.6408): 1016.9 ± 0.8 kg/m3
viscosity (x2 = 0.6408): 0.854 ± 0.015 mPa·s
mass density (x2 = 0.7351): 1027.2 ± 0.8 kg/m3
viscosity (x2 = 0.7351): 0.77 ± 0.013 mPa·s
mass density (x2 = 0.8263): 1037.4 ± 0.8 kg/m3
viscosity (x2 = 0.8263): 0.688 ± 0.012 mPa·s
mass density (x2 = 0.9146): 1047.3 ± 0.9 kg/m3
viscosity (x2 = 0.9146): 0.608 ± 0.011 mPa·s
Compound: CCCC(=O)O [butanoic acid] + C1COCO1

Compound: CCCCOC(C)=O [butyl ethanoate] + C1COCO1
mass density (x2 = 0): 874.4 ± 0.7 kg/m3
viscosity (x2 = 0): 0.668 ± 0.012 mPa·s

Compound: C1COCCO1 [1,4-dioxane] + CCCC(=O)O
mass density (x1 = 1): 1026.5 ± 0.8 kg/m3
viscosity (x1 = 1): 1.196 ± 0.02 mPa·s

mass density (x2 = 0): 731.9 ± 0.6 kg/m3
viscosity (x2 = 0): 0.493 ± 0.009 mPa·s
mass density (x2 = 0.1001): 755.1 ± 0.6 kg/m3
viscosity (x2 = 0.1001): 0.477 ± 0.009 mPa·s
mass density (x2 = 0.2001): 779.6 ± 0.6 kg/m3
viscosity (x2 = 0.2001): 0.463 ± 0.009 mPa·s
mass density (x2 = 0.3002): 805.8 ± 0.6 kg/m3
viscosity (x2 = 0.3002): 0.458 ± 0.009 mPa·s
mass density (x2 = 0.4002): 833.8 ± 0.7 kg/m3
viscosity (x2 = 0.4002): 0.455 ± 0.009 mPa·s
mass density (x2 = 0.5002): 864.1 ± 0.7 kg/m3
viscosity (x2 = 0.5002): 0.456 ± 0.009 mPa·s
mass density (x2 = 0.6002): 896.8 ± 0.7 kg/m3
viscosity (x2 = 0.6002): 0.464 ± 0.009 mPa·s
mass density (x2 = 0.7002): 932.1 ± 0.8 kg/m3
viscosity (x2 = 0.7002): 0.478 ± 0.009 mPa·s
mass density (x2 = 0.8001): 970.3 ± 0.8 kg/m3
viscosity (x2 = 0.8001): 0.496 ± 0.009 mPa·s
mass density (x2 = 0.9001): 1011.8 ± 0.8 kg/m3
viscosity (x2 = 0.9001): 0.513 ± 0.01 mPa·s
Compound: CCCCN [1-butanamine] + C1COCO1

Compound: C1COCO1 [1,3-dioxolane] + CCCCN
mass density (x1 = 1): 1057.1 ± 0.9 kg/m3
viscosity (x1 = 1): 0.531 ± 0.01 mPa·s

Compound: C1COCO1 [1,3-dioxolane] + CCCC(=O)O
mass density (x1 = 1): 1057.1 ± 0.9 kg/m3
viscosity (x1 = 1): 0.531 ± 0.01 mPa·s
